Data reported in PubChem BioAssay AID1963825 (Molecular Pharmacology Branch, DTP, NCI, 2024).
pIC50: −log10 of the molar value.

Experiment: Anticancer human tumor 997537-175-T-J1-PDC patient-derived colon adenocarcinoma cell line growth inhibition [POLQ]
Conditions: 997537-175-T-J1-PDC complex spheroid viability, combination with POLQ inhibitors; for pIC50: curve of first compound; for viability, T/C: stronger effect = lower value
In short: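 PDC + HUVEC + MSC complex spheroids; POLQ inhibitors ± partner drugs; top conc. at/near clinical Cmax, else 10 microM (SN-38 1 microM), half-log dilutions; 37 degrees C, 5% CO2.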

[1] = second compound 0.0316 µM, first compound 0.0316 µM
[2] = second compound 0.0316 µM, first compound 0.1 µM
[3] = second compound 0.0316 µM, first compound 0.316 µM
[4] = second compound 0.0316 µM, first compound 1 µM
[5] = second compound 0.0316 µM, first compound 3.16 µM
[6] = second compound 0.0316 µM, first compound 10 µM
[7] = second compound 0.1 µM, first compound 0.0316 µM
[8] = second compound 0.1 µM, first compound 0.1 µM
[9] = second compound 0.1 µM, first compound 0.316 µM
[10] = second compound 0.1 µM, first compound 1 µM
[11] = second compound 0.1 µM, first compound 3.16 µM
[12] = second compound 0.1 µM, first compound 10 µM
[13] = second compound 0.316 µM, first compound 0.0316 µM
[14] = second compound 0.316 µM, first compound 0.1 µM
[15] = second compound 0.316 µM, first compound 0.316 µM
[16] = second compound 0.316 µM, first compound 1 µM
[17] = second compound 0.316 µM, first compound 3.16 µM
[18] = second compound 0.316 µM, first compound 10 µM
[19] = second compound 1 µM, first compound 0.0316 µM
[20] = second compound 1 µM, first compound 0.1 µM
[21] = second compound 1 µM, first compound 0.316 µM
[22] = second compound 1 µM, first compound 1 µM
[23] = second compound 1 µM, first compound 3.16 µM
[24] = second compound 1 µM, first compound 10 µM
[25] = second compound 3.16 µM, first compound 0.0316 µM
[26] = second compound 3.16 µM, first compound 0.1 µM
[27] = second compound 3.16 µM, first compound 0.316 µM
[28] = second compound 3.16 µM, first compound 1 µM
[29] = second compound 3.16 µM, first compound 3.16 µM
[30] = second compound 3.16 µM, first compound 10 µM
[31] = second compound 10 µM, first compound 0.0316 µM
[32] = second compound 10 µM, first compound 0.1 µM
[33] = second compound 10 µM, first compound 0.316 µM
[34] = second compound 10 µM, first compound 1 µM
[35] = second compound 10 µM, first compound 3.16 µM
[36] = second compound 10 µM, first compound 10 µM
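Also: luminescence signal used as a surrogate for viable cells; spheroids exposed to drugs for seven days before readout.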

Q: With `C#Cc1c(F)ccc2cc(O)cc(-c3ncc4c(N5CC6CCC(C5)N6)nc(OCC56CCCN5CC(F)C6)nc4c3F)c12` (centres undefined) + Cc1cccc(N(C)C(=O)C2C(O)CCN2c2nc(C)cc(C(F)(F)F)c2C#N)c1 as the compound, how does the pIC50 (second compound 0.0316 µM) read?
A: < 5.00

Q: And the pIC50 (second compound 0.1 µM)?
A: < 5.00

Q: And the pIC50 (second compound 0.316 µM)?
A: < 5.00

Q: What about the pIC50 (second compound 1 µM) of the same compound?
A: < 5.00

Q: And the pIC50 (second compound 3.16 µM)?
A: < 5.00

Q: And the pIC50 (second compound 10 µM)?
A: < 5.00

Q: What about the viability, T/C [1] of the same compound?
A: 95.2%

Q: What about the viability, T/C [2] of the same compound?
A: 106%

Q: What about the viability, T/C [3] of the same compound?
A: 89.2%

Q: What about the viability, T/C [4] of the same compound?
A: 107%

Q: And the viability, T/C [5]?
A: 108%

Q: What about the viability, T/C [6] of the same compound?
A: 109%

Q: What about the viability, T/C [7] of the same compound?
A: 99.2%

Q: And the viability, T/C [8]?
A: 102%

Q: And the viability, T/C [9]?
A: 98.2%

Q: What about the viability, T/C [10] of the same compound?
A: 104%

Q: What about the viability, T/C [11] of the same compound?
A: 104%

Q: What about the viability, T/C [12] of the same compound?
A: 108%

Q: And the viability, T/C [13]?
A: 106%

Q: What about the viability, T/C [14] of the same compound?
A: 106%

Q: What about the viability, T/C [15] of the same compound?
A: 91.6%

Q: What about the viability, T/C [16] of the same compound?
A: 91.7%

Q: And the viability, T/C [17]?
A: 121%

Q: And the viability, T/C [18]?
A: 105%

Q: What about the viability, T/C [19] of the same compound?
A: 109%

Q: And the viability, T/C [20]?
A: 107%

Q: What about the viability, T/C [21] of the same compound?
A: 111%

Q: And the viability, T/C [22]?
A: 100%

Q: And the viability, T/C [23]?
A: 98.5%

Q: What about the viability, T/C [24] of the same compound?
A: 102%

Q: What about the viability, T/C [25] of the same compound?
A: 106%

Q: And the viability, T/C [26]?
A: 83.5%

Q: What about the viability, T/C [27] of the same compound?
A: 101%

Q: And the viability, T/C [28]?
A: 112%

Q: And the viability, T/C [29]?
A: 101%

Q: What about the viability, T/C [30] of the same compound?
A: 104%

Q: And the viability, T/C [31]?
A: 99.8%

Q: And the viability, T/C [32]?
A: 88.6%

Q: What about the viability, T/C [33] of the same compound?
A: 101%

Q: What about the viability, T/C [34] of the same compound?
A: 119%

Q: What about the viability, T/C [35] of the same compound?
A: 94.1%

Q: And the viability, T/C [36]?
A: 89%

Q: With `CC1COCCN1c1cc(C2(O)CC3CCC(C2)O3)c2cnn(-c3ccn[nH]3)c2n1` (centres undefined) + Cc1cccc(N(C)C(=O)C2C(O)CCN2c2nc(C)cc(C(F)(F)F)c2C#N)c1 as the compound, how does the pIC50 (second compound 0.0316 µM) read?
A: < 5.00

Q: And the pIC50 (second compound 0.1 µM)?
A: 5.50

Q: And the pIC50 (second compound 0.316 µM)?
A: 6.03

Q: And the pIC50 (second compound 1 µM)?
A: < 5.00

Q: And the pIC50 (second compound 3.16 µM)?
A: < 5.00

Q: What about the pIC50 (second compound 10 µM) of the same compound?
A: 5.40

Q: And the viability, T/C [1]?
A: 79.8%

Q: And the viability, T/C [2]?
A: 96%

Q: What about the viability, T/C [3] of the same compound?
A: 60%

Q: And the viability, T/C [4]?
A: 52.8%

Q: And the viability, T/C [5]?
A: 58.3%

Q: And the viability, T/C [6]?
A: 39%

Q: What about the viability, T/C [7] of the same compound?
A: 94.8%

Q: What about the viability, T/C [8] of the same compound?
A: 94.2%

Q: And the viability, T/C [9]?
A: 48.6%

Q: And the viability, T/C [10]?
A: 42.4%

Q: What about the viability, T/C [11] of the same compound?
A: 66.4%

Q: What about the viability, T/C [12] of the same compound?
A: 53.9%

Q: And the viability, T/C [13]?
A: 76.5%

Q: What about the viability, T/C [14] of the same compound?
A: 66.8%

Q: What about the viability, T/C [15] of the same compound?
A: 54.8%

Q: And the viability, T/C [16]?
A: 45.9%

Q: What about the viability, T/C [17] of the same compound?
A: 53.8%

Q: And the viability, T/C [18]?
A: 47.6%

Q: What about the viability, T/C [19] of the same compound?
A: 86.8%

Q: What about the viability, T/C [20] of the same compound?
A: 81.9%

Q: What about the viability, T/C [21] of the same compound?
A: 43.2%

Q: And the viability, T/C [22]?
A: 57.3%

Q: What about the viability, T/C [23] of the same compound?
A: 81.9%

Q: What about the viability, T/C [24] of the same compound?
A: 64.7%

Q: What about the viability, T/C [25] of the same compound?
A: 84.3%

Q: And the viability, T/C [26]?
A: 59.9%

Q: And the viability, T/C [27]?
A: 62.8%

Q: And the viability, T/C [28]?
A: 54.1%

Q: What about the viability, T/C [29] of the same compound?
A: 54.5%

Q: What about the viability, T/C [30] of the same compound?
A: 75.8%

Q: And the viability, T/C [31]?
A: 92.3%

Q: What about the viability, T/C [32] of the same compound?
A: 69%

Q: What about the viability, T/C [33] of the same compound?
A: 61.4%

Q: And the viability, T/C [34]?
A: 47.4%

Q: What about the viability, T/C [35] of the same compound?
A: 58.1%

Q: And the viability, T/C [36]?
A: 44.8%
